In experiment [1] the test system is mouse FL5.12 cells transfected with Bcl-XL. Put plainly: FL5.12 cellular assay (cell viability, CellTiter-Glo).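 Note: each EC50 determination derived from duplicate measurements.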 The format is cell-based. Conditions: Mus musculus. On the technique in general: Cellular ATP, detected with luciferase, serves as a proxy for viable cell number.
Description: For assaying the compound activity, the cells were exchanged into an IL-3-depleted deprivation media, which was identical to the growth media except for the absence of FBS and WEHI-3B conditional media, for 2 days. Then the cells were exchanged to 3% FBS assay media (RPMI with 2 mM glutamine, 1% 100 mM sodium pyruvate, 2% 1 M HEPES, 4 µL/L of β-mercaptoethanol, 1% penicillin-streptomycin, 3% FBS). Compounds in series dilutions were added, and the cells were cultured for 24 hours. Compounds in series dilutions were added, and the cells were cultured for 24 hours. Cell viability was assayed using the CellTiter-Glo assay (Promega Corp., Madison, WI) according to the manufacturer instructions. Individual determinations were the result of duplicate values.
The target of experiment [2] is GST-Bcl-xL (Homo sapiens, UniProt Q07817). The conditions noted are these: read-out: TR-FRET binding Bcl-xL Ki. On the technique in general: TR-FRET usually uses a lanthanide donor and a delayed reading to cut background.
GST-Bcl-xL, sequence (Q07817 whole entry): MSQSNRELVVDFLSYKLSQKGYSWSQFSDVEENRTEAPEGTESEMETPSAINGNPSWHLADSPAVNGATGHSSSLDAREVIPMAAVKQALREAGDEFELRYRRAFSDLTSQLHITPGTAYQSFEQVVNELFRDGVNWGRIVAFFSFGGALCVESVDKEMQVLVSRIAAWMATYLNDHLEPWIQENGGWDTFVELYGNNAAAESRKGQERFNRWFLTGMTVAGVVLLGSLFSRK
Setting [3] is: FL5.12 cells transfected with Bcl-XL, IL-3-depleted, 3% FBS assay media, 24 hours, CellTiter-Glo, read-out: FL5.12 Bcl-xL, - IL3, EC 50.

The structures appear in SMILES notation. Read-outs that look alike come from different tables or passages of the source.

On to `Cc1c(-c2ccc(N3CCc4cccc(C(=O)Nc5nc6ccccc6s5)c4C3)nc2C(=O)O)cnn1CC1(OCCCN2CCOCC2)CCCCCC1` [Example 155, 6-[8-(1,3-benzothiazol-2-ylcarbamoyl)-3,4-dihydroisoquinolin-2(1H)-yl]-3-[5-methyl-1-({1-[3-(morpholin-4-yl)propoxy]cycloheptyl}methyl)-1H-pyrazol-4-yl]pyridine-2-carboxylic acid], for which the EC50 in experiment [1] (setting [3]) is 7 nM. Further, the Ki – broadly, a dissociation constant, usually derived from enzyme kinetics or from competition with a known ligand – in experiment [2] is < 0.1 nM.

Turning to `COC1(Cn2ncc(-c3ccc(N4CCc5cccc(C(=O)Nc6nc7ccccc7s6)c5C4)nc3C(=O)O)c2C)CCCC(C)(C)C1` (stereo not shown) [Example 157, 6-[8-(1,3-benzothiazol-2-ylcarbamoyl)-3,4-dihydroisoquinolin-2(1H)-yl]-3-{1-[(1-methoxy-3,3-dimethylcyclohexyl)methyl]-5-methyl-1H-pyrazol-4-yl}pyridine-2-carboxylic acid], in experiment [1] (setting [3]), the EC50 came to 0.3 nM. For the same compound, the Ki in experiment [2] is < 0.1 nM.

Take `Cc1c(-c2ccc(N3CCc4cccc(C(=O)Nc5nc6ccccc6s5)c4C3)nc2C(=O)O)cnn1CC1(N2CCOCC2)CCCCC1` [Example 160, 6-[8-(1,3-benzothiazol-2-ylcarbamoyl)-3,4-dihydroisoquinolin-2(1H)-yl]-3-(5-methyl-1-{[1-(morpholin-4-yl)cyclohexyl]methyl}-1H-pyrazol-4-yl)pyridine-2-carboxylic acid]: the EC50 in experiment [1] (setting [3]) is 14 nM. In addition, the Ki in experiment [2] was < 0.1 nM.

Turning to `COC1(Cn2ncc(-c3ccc(N4CCc5cccc(C(=O)Nc6nc7ccccc7s6)c5C4)nc3C(=O)NS(C)(=O)=O)c2C)CCCC(C)(C)C1` (stereo not shown) [Example 162, N-(1,3-benzothiazol-2-yl)-2-(5-{1-[(1-methoxy-3,3-dimethylcyclohexyl)methyl]-5-methyl-1H-pyrazol-4-yl}-6-[(methylsulfonyl)carbamoyl]pyridin-2-yl)-1,2,3,4-tetrahydroisoquinoline-8-carboxamide], the EC50 in experiment [1] (setting [3]) stood at 5 nM. Further, the Ki in experiment [2] was < 0.1 nM.

Consider `Cc1c(-c2ccc(N3CCc4cccc(C(=O)Nc5nc6ccccc6s5)c4C3C)nc2C(=O)O)cnn1CC1(C)CCCCC1` (stereo not shown) [Example 163, 6-[8-(1,3-benzothiazol-2-ylcarbamoyl)-1-methyl-3,4-dihydroisoquinolin-2(1H)-yl]-3-{5-methyl-1-[(1-methylcyclohexyl)methyl]-1H-pyrazol-4-yl}pyridine-2-carboxylic acid], for which the EC50 in experiment [1] (setting [3]) amounted to 211 nM. The Ki in experiment [2] is 0.4 nM.

For `COC1(Cn2ncc(-c3ccc(N4CCc5cccc(C(=O)Nc6nc7ccccc7s6)c5C4)nc3C(=O)O)c2C)CCCCC1` [Example 165, 6-[8-(1,3-benzothiazol-2-ylcarbamoyl)-3,4-dihydroisoquinolin-2(1H)-yl]-3-{1-[(1-methoxycyclohexyl)methyl]-5-methyl-1H-pyrazol-4-yl}pyridine-2-carboxylic acid], in experiment [1] (setting [3]), the EC50 came out at 9 nM. In experiment [2], the Ki was < 0.1 nM.

In the case of `COC1(Cn2nnc(-c3ccc(N4CCc5cccc(C(=O)Nc6nc7ccccc7s6)c5C4)nc3C(=O)O)c2C)CCCC(C)(C)C1` (stereo not shown) [Example 166, 6-[8-(1,3-benzothiazol-2-ylcarbamoyl)-3,4-dihydroisoquinolin-2(1H)-yl]-3-{1-[(1-methoxy-3,3-dimethylcyclohexyl)methyl]-5-methyl-1H-1,2,3-triazol-4-yl}pyridine-2-carboxylic acid], the EC50 in experiment [1] (setting [3]) worked out at 30 nM. In experiment [2], the Ki is < 0.1 nM.

With `Cc1c(-c2ccc(N3CCc4cccc(C(=O)Nc5nc6ccccc6s5)c4C3)nc2C(=O)O)cnn1CC1(OCCN2CCS(=O)(=O)CC2)CCCCC1` [Example 167, 6-[8-(1,3-benzothiazol-2-ylcarbamoyl)-3,4-dihydroisoquinolin-2(1H)-yl]-3-[1-({1-[2-(1,1-dioxidothiomorpholin-4-yl)ethoxy]cyclohexyl}methyl)-5-methyl-1H-pyrazol-4-yl]pyridine-2-carboxylic acid], in experiment [1] (setting [3]), the EC50 is 81 nM. Besides, in experiment [2], the Ki was < 0.1 nM.

Turning to `Cc1c(-c2ccc(N3CCc4cccc(C(=O)Nc5nc6ccccc6s5)c4C3)nc2C(=O)O)cc(C#N)n1CC1(N2CCOCC2)CCCCC1` [Example 168, 6-[8-(1,3-benzothiazol-2-ylcarbamoyl)-3,4-dihydroisoquinolin-2(1H)-yl]-3-(5-cyano-2-methyl-1-{[1-(morpholin-4-yl)cyclohexyl]methyl}-1H-pyrrol-3-yl)pyridine-2-carboxylic acid], the EC50 in experiment [1] (setting [3]) amounted to 14 nM. For the same compound, the Ki in experiment [2] was < 0.1 nM.

Regarding `Cc1c(-c2ccc(N3CCc4cccc(C(=O)Nc5nc6ccccc6s5)c4C3)nc2C(=O)O)cnn1CC1(OCCO)CCCCC1` [Example 169, 6-[8-(1,3-benzothiazol-2-ylcarbamoyl)-3,4-dihydroisoquinolin-2(1H)-yl]-3-(1-{[1-(2-hydroxyethoxy)cyclohexyl]methyl}-5-methyl-1H-pyrazol-4-yl)pyridine-2-carboxylic acid], the EC50 in experiment [1] (setting [3]) was determined as 10 nM. In addition, the Ki in experiment [2] is < 0.1 nM.

As to `COCC(COC1(Cn2ncc(-c3ccc(N4CCc5cccc(C(=O)Nc6nc7ccccc7s6)c5C4)nc3C(=O)O)c2C)CCCCCC1)OC` (stereo not shown) [Example 170, 6-[8-(1,3-benzothiazol-2-ylcarbamoyl)-3,4-dihydroisoquinolin-2(1H)-yl]-3-(1-{[1-(2,3-dimethoxypropoxy)cycloheptyl]methyl}-5-methyl-1H-pyrazol-4-yl)pyridine-2-carboxylic acid], the EC50 in experiment [1] (setting [3]) was found to be 0.5 nM. The inhibition constant Ki in experiment [2] was < 0.1 nM.

Regarding `COCCOC1(Cn2c(C#N)cc(-c3ccc(N4CCc5cccc(C(=O)Nc6nc7ccccc7s6)c5C4)nc3C(=O)O)c2C)CCCCCC1` [Example 172, 6-[8-(1,3-benzothiazol-2-ylcarbamoyl)-3,4-dihydroisoquinolin-2(1H)-yl]-3-(5-cyano-1-{[1-(2-methoxyethoxy)cycloheptyl]methyl}-2-methyl-1H-pyrrol-3-yl)pyridine-2-carboxylic acid], the EC50 in experiment [1] (setting [3]) worked out at 1 nM. In experiment [2], the Ki is < 0.1 nM.

As to `Cc1c(-c2ccc(N3CCc4cccc(C(=O)Nc5nc6ccccc6s5)c4C3)nc2C(=O)O)cnn1CC1(OCC2COCCO2)CCCCCC1` (stereo not shown) [Example 173, 6-[8-(1,3-benzothiazol-2-ylcarbamoyl)-3,4-dihydroisoquinolin-2(1H)-yl]-3-(1-{[1-(1,4-dioxan-2-ylmethoxy)cycloheptyl]methyl}-5-methyl-1H-pyrazol-4-yl)pyridine-2-carboxylic acid], in experiment [1] (setting [3]), the EC50 came to 0.1 nM. In addition, in experiment [2], the Ki is < 0.1 nM.

With `Cc1c(-c2ccc(N3CCc4cccc(C(=O)Nc5nc6ccccc6s5)c4C3)nc2C(=O)O)cnn1CC1(OCC(=O)N2CCOCC2)CCCCC1` [Example 174, 6-[8-(1,3-benzothiazol-2-ylcarbamoyl)-3,4-dihydroisoquinolin-2(1H)-yl]-3-[5-methyl-1-({1-[2-(morpholin-4-yl)-2-oxoethoxy]cyclohexyl}methyl)-1H-pyrazol-4-yl]pyridine-2-carboxylic acid], the EC50 in experiment [1] (setting [3]) stood at 210 nM. The Ki in experiment [2] is < 0.1 nM.

As to `Cc1c(-c2ccc(N3CCc4cccc(C(=O)Nc5nc6ccccc6s5)c4C3)nc2C(=O)O)cnn1CC1(OCC(O)CO)CCCCCC1` (stereo not shown) [Example 175, 6-[8-(1,3-benzothiazol-2-ylcarbamoyl)-3,4-dihydroisoquinolin-2(1H)-yl]-3-(1-{[1-(2,3-dihydroxypropoxy)cycloheptyl]methyl}-5-methyl-1H-pyrazol-4-yl)pyridine-2-carboxylic acid], the EC50 in experiment [1] (setting [3]) came out at 33 nM. Besides, the Ki in experiment [2] was < 0.1 nM.

In the case of `Cc1c(-c2ccc(N3CCc4cccc(C(=O)Nc5nc6ccccc6s5)c4C3)nc2C(=O)O)cc(C#N)n1CC1(N(C)C)CCCCC1` [Example 176, 6-[8-(1,3-benzothiazol-2-ylcarbamoyl)-3,4-dihydroisoquinolin-2(1H)-yl]-3-(5-cyano-1-{[1-(dimethylamino)cyclohexyl]methyl}-2-methyl-1H-pyrrol-3-yl)pyridine-2-carboxylic acid], the EC50 in experiment [1] (setting [3]) came to 10 nM. In addition, the Ki in experiment [2] is < 0.1 nM.

Turning to `Cc1c(-c2ccc(N3CCc4cccc(C(=O)Nc5nc6ccccc6s5)c4C3)nc2C(=O)O)cccc1N(C)C(=O)C1CCCCC1` [Example 177, 6-[8-(1,3-benzothiazol-2-ylcarbamoyl)-3,4-dihydroisoquinolin-2(1H)-yl]-3-{3-[(cyclohexylcarbonyl)(methyl)amino]-2-methylphenyl}pyridine-2-carboxylic acid], the EC50 in experiment [1] (setting [3]) amounted to 24 nM. The Ki in experiment [2] is < 0.1 nM.

In the case of `Cc1c(-c2ccc(N3CCc4cccc(C(=O)Nc5nc6ccccc6s5)c4C3)nc2C(=O)O)cnn1CC1(OCCS(C)(=O)=O)CCCC(C)(C)C1` (stereo not shown) [Example 178, 6-[8-(1,3-benzothiazol-2-ylcarbamoyl)-3,4-dihydroisoquinolin-2(1H)-yl]-3-[1-({3,3-dimethyl-1-[2-(methylsulfonyl)ethoxy]cyclohexyl}methyl)-5-methyl-1H-pyrazol-4-yl]pyridine-2-carboxylic acid], the EC50 in experiment [1] (setting [3]) is 0.2 nM. The Ki in experiment [2] was < 0.1 nM.

With `Cc1c(-c2ccc(N3CCc4cccc(C(=O)Nc5nc6ccccc6s5)c4C3)nc2C(=O)O)cccc1N(C)C(=O)C1(C)CCCCC1` [Example 179, 6-[8-(1,3-benzothiazol-2-ylcarbamoyl)-3,4-dihydroisoquinolin-2(1H)-yl]-3-(2-methyl-3-{methyl[(1-methylcyclohexyl)carbonyl]amino}phenyl)pyridine-2-carboxylic acid], in experiment [1] (FL5.12, 24 h, read-out: FL5.12 Bcl-xL, - IL3, EC 50 (nM)), the EC50 stood at 6 nM. For the same compound, the Ki in experiment [2] was < 0.1 nM.

With `N#Cc1c(-c2ccc(N3CCc4cccc(C(=O)Nc5nc6ccccc6s5)c4C3)nc2C(=O)O)cccc1N1CCCC1C12CC3CC(CC(C3)C1)C2` (stereo not shown) [Example 182, 6-[8-(1,3-benzothiazol-2-ylcarbamoyl)-3,4-dihydroisoquinolin-2(1H)-yl]-3-{2-cyano-3-[2-(tricyclo[3.3.1.1^3,7]dec-1-yl)pyrrolidin-1-yl]phenyl}pyridine-2-carboxylic acid], the EC50 in experiment [1] (setting [3]) was determined as 6 nM. Further, the Ki in experiment [2] came out at 0.2 nM.
